For orientation: IC50 means the concentration needed to halve the response being measured.

The assay has as its target T1, human TRPV3 (Homo sapiens, UniProt Q8NET8).
T1 construct: expressed in transfected cells; host or cells: HEK293
T1 sequence (Q8NET8 1-790): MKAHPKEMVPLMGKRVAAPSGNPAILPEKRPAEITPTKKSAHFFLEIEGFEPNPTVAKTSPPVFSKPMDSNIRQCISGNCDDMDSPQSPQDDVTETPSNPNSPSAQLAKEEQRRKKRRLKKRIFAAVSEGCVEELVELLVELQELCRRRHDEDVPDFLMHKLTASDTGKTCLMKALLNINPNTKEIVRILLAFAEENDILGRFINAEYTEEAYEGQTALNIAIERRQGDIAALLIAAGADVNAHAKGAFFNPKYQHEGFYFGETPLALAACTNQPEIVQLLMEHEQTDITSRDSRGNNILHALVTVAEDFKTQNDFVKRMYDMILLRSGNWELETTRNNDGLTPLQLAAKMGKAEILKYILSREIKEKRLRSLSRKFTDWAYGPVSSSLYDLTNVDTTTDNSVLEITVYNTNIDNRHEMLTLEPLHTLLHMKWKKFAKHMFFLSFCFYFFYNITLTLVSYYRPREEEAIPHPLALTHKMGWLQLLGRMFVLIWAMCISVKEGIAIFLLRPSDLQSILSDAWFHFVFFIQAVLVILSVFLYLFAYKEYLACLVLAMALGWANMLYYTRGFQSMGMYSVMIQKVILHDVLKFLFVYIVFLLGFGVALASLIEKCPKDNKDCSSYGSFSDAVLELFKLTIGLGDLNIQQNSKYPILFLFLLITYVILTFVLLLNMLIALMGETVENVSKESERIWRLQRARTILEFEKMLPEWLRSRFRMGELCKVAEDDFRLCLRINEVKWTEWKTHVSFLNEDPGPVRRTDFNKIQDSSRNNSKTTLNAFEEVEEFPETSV
The experiment in a line: Calcium flux assay (FLIPR TETRA), recombinant HEK293 cells expressing TRPV3, 2-APB response. The assay is classed as cell-based. Particulars: 2-APB at its EC80. In outline:
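Response is the peak fluorescence increase over baseline, as a percentage of the compound-free response to 2-APB at EC80. Calcium flux recorded on FLIPR TETRA in stable human or mouse TRPV3 HEK293 cells after 90–120 min Calcium-4 dye loading.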
As to `COc1ncnc(OC)c1C(=O)Nc1nc(C(F)(F)F)c(C2CCCOC2)s1` (centres unmarked) [Example 148, 4,6-dimethoxy-N-[5-(tetrahydro-2H-pyran-3-yl)-4-(trifluoromethyl)-1,3-thiazol-2-yl]pyrimidine-5-carboxamide], the IC50 is 50 to 100 nM.
As to `COc1ncnc(OC)c1C(=O)Nc1nc(C(F)(F)F)c(-c2ccnc(C3(C#N)CC3)c2)s1` [Example 151, N-{5-[2-(1-cyanocyclopropyl)pyridin-4-yl]-4-(trifluoromethyl)-1,3-thiazol-2-yl}-4,6-dimethoxypyrimidine-5-carboxamide], the IC50 was under 50 nM.
As for `COc1ncnc(OC)c1C(=O)Nc1nc(C(F)(F)F)c(-c2ccnc(CC#N)c2)s1` [Example 152, N-{5-[2-(cyanomethyl)pyridin-4-yl]-4-(trifluoromethyl)-1,3-thiazol-2-yl}-4,6-dimethoxypyrimidine-5-carboxamide], the figure is 100 to 500 nM.
As to `COc1ncnc(OC)c1C(=O)Nc1nc(C(F)(F)F)c(-c2cccc(F)n2)s1` [Example 153, N-[5-(6-fluoropyridin-2-yl)-4-(trifluoromethyl)-1,3-thiazol-2-yl]-4,6-dimethoxypyrimidine-5-carboxamide], the half-inhibitory concentration (IC50) is under 50 nM.
With `COc1ncnc(OC)c1C(=O)Nc1nc(C(F)(F)F)c(-c2cccc(C3(C#N)COC3)n2)s1` [Example 154, N-{5-[6-(3-cyanooxetan-3-yl)pyridin-2-yl]-4-(trifluoromethyl)-1,3-thiazol-2-yl}-4,6-dimethoxypyrimidine-5-carboxamide] the figure was 50 to 100 nM; with `COc1ncnc(OC)c1C(=O)Nc1nc(C(F)(F)F)c(-c2cccc(CC#N)n2)s1` [Example 155, N-{5-[6-(cyanomethyl)pyridin-2-yl]-4-(trifluoromethyl)-1,3-thiazol-2-yl}-4,6-dimethoxypyrimidine-5-carboxamide], 100 to 500 nM; with `COc1ncnc(OC)c1C(=O)Nc1nc(C(F)(F)F)c(-c2cncc(OC(C)C)c2)s1` [Example 156, 4,6-dimethoxy-N-{5-[5-(propan-2-yloxy)pyridin-3-yl]-4-(trifluoromethyl)-1,3-thiazol-2-yl}pyrimidine-5-carboxamide], under 50 nM.
As for `COc1ncnc(OC)c1C(=O)Nc1nc(C(F)(F)F)c(-c2ccc(C3(C#N)CC3)cn2)s1` [Example 157, N-{5-[5-(1-cyanocyclopropyl)pyridin-2-yl]-4-(trifluoromethyl)-1,3-thiazol-2-yl}-4,6-dimethoxypyrimidine-5-carboxamide], the figure is 50 to 100 nM; as for `COc1ncnc(OC)c1C(=O)Nc1nc(C(F)(F)F)c(-c2ccc(C(C)(C)C#N)cn2)s1` [Example 158, N-{5-[5-(2-cyanopropan-2-yl)pyridin-2-yl]-4-(trifluoromethyl)-1,3-thiazol-2-yl}-4,6-dimethoxypyrimidine-5-carboxamide], under 50 nM; as for `COc1ncnc(SC)c1C(=O)Nc1nc(C(F)(F)F)c(-c2ccccc2C#N)s1` [Example 159, N-[5-(2-cyanophenyl)-4-(trifluoromethyl)-1,3-thiazol-2-yl]-4-methoxy-6-(methylsulfanyl)pyrimidine-5-carboxamide], under 50 nM.
For `CCSc1ncnc(OC)c1C(=O)Nc1nc(C(F)(F)F)c(-c2ccccc2C#N)s1` [Example 160, N-[5-(2-cyanophenyl)-4-(trifluoromethyl)-1,3-thiazol-2-yl]-4-(ethylsulfanyl)-6-methoxypyrimidine-5-carboxamide], the IC50 is under 50 nM.
Turning to `COc1nc(C#N)nc(C(F)(F)F)c1C(=O)Nc1nc(C(F)(F)F)c(I)s1` [Example 161, 2-cyano-N-[5-iodo-4-(trifluoromethyl)-1,3-thiazol-2-yl]-4-methoxy-6-(trifluoromethyl)pyrimidine-5-carboxamide], the IC50 fell in the range of 100 to 500 nM.
As for `COc1ncnc(OC)c1C(=O)Nc1nc(C(F)(F)F)c(-c2cnc(C#N)nc2)s1` [Example 162, N-[5-(2-cyanopyrimidin-5-yl)-4-(trifluoromethyl)-1,3-thiazol-2-yl]-4,6-dimethoxypyrimidine-5-carboxamide], the figure is 100 to 500 nM.
With `COc1ncnc(OC)c1C(=O)Nc1nc(C(F)(F)F)c(C(F)(F)F)s1` [Example 163, N-[4,5-bis(trifluoromethyl)-1,3-thiazol-2-yl]-4,6-dimethoxypyrimidine-5-carboxamide] the figure was 50 to 100 nM; with `COc1ncnc(OC)c1C(=O)Nc1nc(C(F)(F)F)c(C2=CCC(C#N)CC2)s1` (centres unmarked) [Example 164, N-[5-(4-cyanocyclohex-1-en-1-yl)-4-(trifluoromethyl)-1,3-thiazol-2-yl]-4,6-dimethoxypyrimidine-5-carboxamide], 100 to 500 nM.
Regarding `COc1ncnc(OC)c1C(=O)Nc1nc(C(F)(F)F)c(C2=CCN(S(C)(=O)=O)CC2)s1` [Example 165, 4,6-dimethoxy-N-{5-[1-(methylsulfonyl)-1,2,3,6-tetrahydropyridin-4-yl]-4-(trifluoromethyl)-1,3-thiazol-2-yl}pyrimidine-5-carboxamide], the IC50 is 500 to 1000 nM.
As for `COc1ncnc(OC)c1C(=O)Nc1nc(C(F)(F)F)c(-c2ccnc(C(F)(F)F)c2)s1` [Example 166, 4,6-dimethoxy-N-{4-(trifluoromethyl)-5-[2-(trifluoromethyl)pyridin-4-yl]-1,3-thiazol-2-yl}pyrimidine-5-carboxamide], the figure is 50 to 100 nM.
As for `COc1ncnc(OC)c1C(=O)Nc1nc(C(F)(F)F)c(-c2ccnc3ccccc23)s1` [Example 167, 4,6-dimethoxy-N-[5-(quinolin-4-yl)-4-(trifluoromethyl)-1,3-thiazol-2-yl]pyrimidine-5-carboxamide], the figure is under 50 nM; as for `COc1ncnc(OC)c1C(=O)Nc1nc(C(F)(F)F)c(-c2cnn(C3CC3)c2)s1` [Example 168, N-[5-(1-cyclopropyl-1H-pyrazol-4-yl)-4-(trifluoromethyl)-1,3-thiazol-2-yl]-4,6-dimethoxypyrimidine-5-carboxamide], 50 to 100 nM.
As for `COc1ncnc(OC)c1C(=O)Nc1nc(C(F)(F)F)c(C2CC(C(C)C)=NO2)s1` (centres unmarked) [Example 170, 4,6-dimethoxy-N-{5-[3-(propan-2-yl)-4,5-dihydro-1,2-oxazol-5-yl]-4-(trifluoromethyl)-1,3-thiazol-2-yl}pyrimidine-5-carboxamide], the figure is 100 to 500 nM; as for `COc1ncnc(OC)c1C(=O)Nc1nc(C(F)(F)F)c(-c2cc(C(C)C)no2)s1` [Example 171, 4,6-dimethoxy-N-{5-[3-(propan-2-yl)-1,2-oxazol-5-yl]-4-(trifluoromethyl)-1,3-thiazol-2-yl}pyrimidine-5-carboxamide], 50 to 100 nM; as for `COc1ncnc(OC)c1C(=O)Nc1nc(C(F)(F)F)c(-c2ccc(C(C)(C)C#N)cc2)s1` [Example 173, N-{5-[4-(2-cyanopropan-2-yl)phenyl]-4-(trifluoromethyl)-1,3-thiazol-2-yl}-4,6-dimethoxypyrimidine-5-carboxamide], 100 to 500 nM.
For the molecule `COc1ncnc(OC)c1C(=O)Nc1nc(C(F)(F)F)c(-c2cnn(C(C)C)c2)s1` [Example 174, 4,6-dimethoxy-N-{5-[1-(propan-2-yl)-1H-pyrazol-4-yl]-4-(trifluoromethyl)-1,3-thiazol-2-yl}pyrimidine-5-carboxamide], the IC50 was under 50 nM.
Take `COc1ncnc(OC)c1C(=O)Nc1nc(C(F)(F)F)c(-c2cnn(CC3CC3)c2)s1` [Example 175, N-{5-[1-(cyclopropylmethyl)-1H-pyrazol-4-yl]-4-(trifluoromethyl)-1,3-thiazol-2-yl}-4,6-dimethoxypyrimidine-5-carboxamide]: the IC50 is under 50 nM.
With `COc1ncnc(OC)c1C(=O)Nc1nc(C(F)(F)F)c(-c2ccnn2C)s1` [Example 176, 4,6-dimethoxy-N-[5-(1-methyl-1H-pyrazol-5-yl)-4-(trifluoromethyl)-1,3-thiazol-2-yl]pyrimidine-5-carboxamide] the figure was 100 to 500 nM; with `CCn1cc(-c2sc(NC(=O)c3c(OC)ncnc3OC)nc2C(F)(F)F)cn1` [Example 177, N-[5-(1-ethyl-1H-pyrazol-4-yl)-4-(trifluoromethyl)-1,3-thiazol-2-yl]-4,6-dimethoxypyrimidine-5-carboxamide], 100 to 500 nM.
Regarding `COc1ncnc(OC)c1C(=O)Nc1nc(CCOc2ccc(F)cc2)cs1` [Example 178, N-{4-[2-(4-fluorophenoxy)ethyl]-1,3-thiazol-2-yl}-4,6-dimethoxypyrimidine-5-carboxamide], the IC50 lay within 500 to 1000 nM.
As for `COc1ncnc(OC)c1C(=O)Nc1nc(COc2ccccc2C)cs1` [Example 179, 4,6-dimethoxy-N-{4-[(2-methylphenoxy)methyl]-1,3-thiazol-2-yl}pyrimidine-5-carboxamide], the figure is 100 to 500 nM.
As to `COc1ncnc(OC)c1C(=O)Nc1nc(C(F)(F)F)c(-c2ccnn2C(C)C)s1` [Example 180, 4,6-dimethoxy-N-{5-[1-(propan-2-yl)-1H-pyrazol-5-yl]-4-(trifluoromethyl)-1,3-thiazol-2-yl}pyrimidine-5-carboxamide], the IC50 is under 50 nM.
